For 41 molecules, residual activity results are on record in ChEMBL document CHEMBL3039007, “Structure-based identification of OATP1B1/3 inhibitors” (Mol Pharmacol, 2013).

In data set [1] the target is T1, Solute carrier organic anion transporter family member 1B1 (Homo sapiens, UniProt Q9Y6L6).
T1 sequence (Q9Y6L6 whole entry): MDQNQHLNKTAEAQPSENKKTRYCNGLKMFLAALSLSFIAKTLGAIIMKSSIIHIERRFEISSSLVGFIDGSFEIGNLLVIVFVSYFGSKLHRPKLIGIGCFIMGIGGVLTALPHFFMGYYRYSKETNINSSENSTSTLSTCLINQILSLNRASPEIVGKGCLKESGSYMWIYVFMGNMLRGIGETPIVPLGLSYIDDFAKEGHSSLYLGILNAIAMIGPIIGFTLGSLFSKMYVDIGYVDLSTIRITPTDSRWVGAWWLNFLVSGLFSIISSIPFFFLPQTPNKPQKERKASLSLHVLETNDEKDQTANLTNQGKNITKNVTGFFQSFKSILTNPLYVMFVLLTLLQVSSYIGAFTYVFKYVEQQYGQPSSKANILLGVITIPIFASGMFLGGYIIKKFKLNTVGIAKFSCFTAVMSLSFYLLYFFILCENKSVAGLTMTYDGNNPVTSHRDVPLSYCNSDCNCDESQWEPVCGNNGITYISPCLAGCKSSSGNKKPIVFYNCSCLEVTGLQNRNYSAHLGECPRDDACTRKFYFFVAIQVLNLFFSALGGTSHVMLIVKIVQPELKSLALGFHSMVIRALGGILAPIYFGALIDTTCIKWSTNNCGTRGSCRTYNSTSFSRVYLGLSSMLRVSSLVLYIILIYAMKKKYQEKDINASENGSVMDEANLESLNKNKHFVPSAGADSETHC
The conditions noted are these: chinese hamster, cho, 10 µM.

Data set [2] deals with T2, Solute carrier organic anion transporter family member 1B3 (Homo sapiens, UniProt Q9NPD5).
T2 sequence (Q9NPD5 whole entry): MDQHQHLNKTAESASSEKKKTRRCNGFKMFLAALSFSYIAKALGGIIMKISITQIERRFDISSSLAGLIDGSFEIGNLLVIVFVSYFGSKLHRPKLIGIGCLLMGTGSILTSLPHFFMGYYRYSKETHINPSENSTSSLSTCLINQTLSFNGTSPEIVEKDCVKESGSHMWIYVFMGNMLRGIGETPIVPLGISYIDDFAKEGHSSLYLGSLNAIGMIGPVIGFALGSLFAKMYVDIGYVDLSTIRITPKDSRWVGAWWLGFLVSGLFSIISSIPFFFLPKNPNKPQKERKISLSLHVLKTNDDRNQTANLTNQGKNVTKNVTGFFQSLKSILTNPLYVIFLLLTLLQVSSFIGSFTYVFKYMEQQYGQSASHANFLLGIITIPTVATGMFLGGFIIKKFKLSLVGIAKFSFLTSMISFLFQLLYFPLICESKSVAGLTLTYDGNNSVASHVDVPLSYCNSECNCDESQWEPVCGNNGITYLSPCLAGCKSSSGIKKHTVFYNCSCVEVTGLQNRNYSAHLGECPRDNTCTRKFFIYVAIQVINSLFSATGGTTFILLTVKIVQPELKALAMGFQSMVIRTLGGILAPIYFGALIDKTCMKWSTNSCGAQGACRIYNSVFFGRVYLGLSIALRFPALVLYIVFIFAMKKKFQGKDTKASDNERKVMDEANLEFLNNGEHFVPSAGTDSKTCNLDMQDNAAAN
The conditions noted are these: chinese hamster, cho, 10 µM.

Regarding `COc1ccc(CC2c3cc(OC)c(OC)cc3CCN2C)cc1OC` (configuration not stated) [LAUDANOSINE], the residual activity came out at 107.4% in data set [1] and 114.7% in data set [2].

For the molecule `CC12CCCC(O)(C1)C1CC(C)(C)C1CC2` (stereo not drawn) [beta-CARYOPHYLLENE ALCOHOL], the residual activity in data set [1] is reported as 117.4%; in data set [2], 113%.

`COC(=O)C[C@H]1C(C)(C)C(=O)[C@H]2CC3=C4CC(OC)O[C@@H](c5ccoc5)[C@@]4(C)CCC3[C@]1(C)C2=O` (some centres not stated) [16-DEOXOMEXICANOLIDE 16-METHYL ETHER]: the residual activity in data set [1] is 53.47%; in data set [2], 141.6%.

On to `COc1cc2c3cc1Oc1cc(ccc1O)CC1c4c(cc(OC)c(O)c4Oc4ccc(cc4)CC3N(C)CC2)CCN1C` (configuration not stated) [BEBEERINE], for which the residual activity in data set [1] stood at 53.34%; in data set [2], 74.29%.

For the molecule `ClC1=C(Cl)C2(Cl)C3C4C=CC(C4)C3C1(Cl)C2(Cl)Cl` (configuration not stated) [ALDRIN], the residual activity in data set [1] was 121.9%; in data set [2], 124.9%.

As to `CN1CCN(C2=Nc3ccccc3Oc3ccc(Cl)cc32)CC1.O=C(O)CCC(=O)O` [LOXAPINE SUCCINATE], the residual activity amounted to 140.7% in data set [1] and 117.8% in data set [2].

On to `COc1ccc2c(=O)c(OC)c(-c3ccccc3)oc2c1` [3,7-DIMETHOXYFLAVONE], for which the figures for the residual activity in data set [1] and in data set [2] were 59.28% and 144.6%, respectively.

`O=c1c(O)cc([C@H]2Oc3cc(O)cc(O)c3C[C@H]2O)cc2c([C@H]3Oc4cc(O)cc(O)c4C[C@H]3O)cc(O)c(O)c12` [THEAFLAVIN]: the results for the residual activity in data set [1] and in data set [2] were 53% and 75.27%, respectively.

Consider `CC(NCCC(c1ccccc1)c1ccccc1)c1ccccc1.Cl` (configuration not stated) [FENDILINE HYDROCHLORIDE], for which the values for the residual activity in data set [1] and in data set [2] were 90.27% and 114.6%, respectively.

For `CC(C)(C)NCC(O)COc1cccc2c1CC(O)C(O)C2` (configuration not stated) [NADOLOL], the values for the residual activity in data set [1] and in data set [2] were 76.36% and 86.47%, respectively.

As to `O=c1cc(-c2cc(O)c(O)c(O)c2)oc2cc(O)cc(O)c12` [TRICETIN], the residual activity in data set [1] is listed as 79.5%; in data set [2], 127.6%.

As to `COc1cc(C(=O)NCc2ccc(OCCN(C)C)cc2)cc(OC)c1OC.Cl` [TRIMETHOBENZAMIDE HYDROCHLORIDE], the residual activity in data set [1] came out at 111%; in data set [2], 140.2%.

Regarding `Clc1ccc(COC(Cn2ccnc2)c2ccc(Cl)cc2Cl)cc1.O=[N+]([O-])O` (configuration not stated) [ECONAZOLE NITRATE], the residual activity came out at 146.5% in data set [1] and 127.4% in data set [2].

Take `C=C(CC)C(=O)c1ccc(OCC(=O)O)c(Cl)c1Cl` [ETHACRYNIC ACID]: the figures for the residual activity in data set [1] and in data set [2] were 171.8% and 111.8%, respectively.

As for `CCOP(=S)(OCC)SCCSCC` [DISULFOTON], the results for the residual activity in data set [1] and in data set [2] were 113.3% and 105.1%, respectively.

Turning to `CN1CCN(CC(=O)N2c3ccccc3C(=O)Nc3cccnc32)CC1.Cl.Cl` [PIRENZEPINE HYDROCHLORIDE], the residual activity in data set [1] is 103.8%; in data set [2] it was 100.6%.

In the case of `O=C(O)[C@]1(O)C[C@@H](O)[C@@H](O)[C@H](O)C1` [QUINIC ACID], the figures for the residual activity in data set [1] and in data set [2] were 95.08% and 98.01%, respectively.

For `COc1ccc2c(c1)CC[C@@H]1[C@@H]2CC[C@]2(C)[C@@H](O)[C@H](O)C[C@@H]12`, the residual activity is given as 76.58% in data set [1] and 103.4% in data set [2].

As to `COc1ccc2ccc(=O)oc2c1` [HERNIARIN], the values for the residual activity in data set [1] and in data set [2] were 148.3% and 104.5%, respectively.

Turning to `CC(=O)O[C@]1(C(C)=O)CC[C@H]2[C@@H]3C=C(C)C4=CC(=O)CC[C@]4(C)[C@H]3CC[C@@]21C` [MEGESTROL ACETATE], the residual activity in data set [1] is listed as 50.69%; in data set [2], 93.03%.

With `COc1cc(OC)cc(OC)c1` [1,3,5-TRIMETHOXYBENZENE], the values for the residual activity in data set [1] and in data set [2] were 90.48% and 68.6%, respectively.

In the case of `Nc1ccn([C@@H]2O[C@H](CO)[C@@H](O)[C@H]2O)c(=O)n1` [CYTIDINE], the residual activity in data set [1] came out at 99.44%; in data set [2] it was 114%.

Take `CCCOc1ccc2nc(NC(=O)OC)[nH]c2c1` [OXIBENDAZOLE]: the residual activity in data set [1] is 102.5%; in data set [2], 119.5%.

Consider `COc1ccc(CN(CCN(C)C)c2ccccn2)cc1.O=C(O)/C=C\C(=O)O` [PYRILAMINE MALEATE], for which the residual activity was 68.75% in data set [1] and 101.4% in data set [2].

In the case of `COc1cc(C)c2c(c1C=O)Oc1c(c(C)c(O)c3c1C(O)OC3=O)OC2=O` (configuration not stated) [STICTIC ACID], the residual activity is on record as 94.3% in data set [1] and 32.28% in data set [2].

Consider `COc1ccc(Cc2nccc3cc(OC)c(OC)cc23)cc1OC.Cl` [PAPAVERINE HYDROCHLORIDE], for which the residual activity amounted to 266.9% in data set [1] and 113.7% in data set [2].

In the case of `CO[C@@]1(NC(=O)C(C(=O)[O-])c2ccc(O)cc2)C(=O)N2C(C(=O)[O-])=C(CSc3nnnn3C)CO[C@@H]21.[Na+].[Na+]` (some centres not stated) [MOXALACTAM DISODIUM], the residual activity worked out at 87.94% in data set [1] and 92.91% in data set [2].

Take `O=c1cc[nH]c(=S)[nH]1` [THIOURACIL]: the residual activity in data set [1] was determined as 95.34%; in data set [2], 77.62%.

In the case of `NC(N)=O` [UREA], the residual activity is recorded as 87.46% in data set [1] and 105.9% in data set [2].

On to `O[C@@H]1C[C@H]2CCC[C@@H](C1)N2Cc1ccccc1` [N-BENZYLTROPAN-4-OL], for which the residual activity turned out to be 92.31% in data set [1] and 88.98% in data set [2].

For `COC(=O)C[C@H]1C(C)(C)[C@@H](O)[C@@H]2CC3=C4CC(O)O[C@@H](c5ccoc5)[C@]4(C)CCC3[C@@]1(C)C2=O` (stereo partly drawn) [3,16-DIDEOXYMEXICANOLIDE-3beta-DIOL], the residual activity was 51.44% in data set [1] and 53.76% in data set [2].

With `COc1ccc(C2COc3cc(O)ccc3C2)c(OC)c1O` (racemic) [MUCRONULATOL(+/-)], the residual activity in data set [1] came out at 87.17%; in data set [2], 87.73%.

In the case of `Cc1cc(O)c(C=O)c(O)c1C(=O)O` [HAEMATOMMIC ACID], the residual activity in data set [1] was 54.98%; in data set [2] it was 81.5%.

On to `Cl.Oc1ccc2c3c1O[C@H]1[C@@H](O)CC[C@@]4(O)[C@@H](C2)N(CC2CCC2)CC[C@]314` [NALBUPHINE HYDROCHLORIDE], for which the residual activity in data set [1] is 86.64%; in data set [2], 96.59%.

Regarding `Cl.NCC(=O)CCC(=O)O` [AMINOLEVULINIC ACID HYDROCHLORIDE], the residual activity is on record as 84.34% in data set [1] and 89.23% in data set [2].

With `COc1ccc2cc1Oc1ccc(cc1)C[C@H]1c3cc(c(OC)cc3CCN1C)Oc1c(OC)c(OC)cc3c1[C@H](C2)N(C)CC3` [FANCHININ], the residual activity in data set [1] was 75.74%; in data set [2], 220.2%.

Regarding `CC(=O)O[C@H]1CC[C@]2(C)[C@H]3CC=C4[C@@H]5CC(C)(C)CC[C@]5(C(=O)O)CC[C@@]4(C)[C@]3(C)CC[C@H]2C1(C)C` [ACETYL OLEANOLIC ACID], the residual activity in data set [1] is recorded as 37.04%; in data set [2] it was 24.66%.

In the case of `Cl.O=C(O)C1=CCCNC1` [GUVACINE HYDROCHLORIDE], the residual activity in data set [1] was found to be 115%; in data set [2], 108.7%.

For `C[C@H]1CC[C@]2(NC1)O[C@H]1C[C@H]3[C@@H]4CC[C@H]5C[C@@H](O)CC[C@]5(C)[C@H]4CC[C@]3(C)[C@H]1[C@@H]2C.Cl`, the residual activity was 108.8% in data set [1] and 99.59% in data set [2].

`CC(=O)CC(c1ccccc1)c1c(O)c2ccccc2oc1=O` (configuration not stated) [WARFARIN]: the values for the residual activity in data set [1] and in data set [2] were 122.2% and 66.67%, respectively.

With `NCCC(=O)c1ccccc1N` [KYNURAMINE], the residual activity is 113.9% in data set [1] and 89.22% in data set [2].
